As a reminder, the melting point is the temperature of the solid-liquid transition.

Results on 87 molecules are retold here after a melting point compilation (Tetko et al.; mined from patent text by program, amines drawn as free bases though some values may be those of a salt).

For `Cn1cc(-c2ccncc2)cc(N)c1=O`, the melting point was in the range of 175 to 176 °C.
Next, `COc1ccccc1N1CCN(CC(O)COc2ccc(OCc3ccccc3)c3ccccc23)CC1` (configuration not stated): 143 to 145 °C.
For the molecule `CCN(CC)CCOc1ccc(N(C(=O)Nc2ccccc2)C2=NN(c3ccccc3)CC2)cc1`, the melting point was 140 to 141 °C.
For `CSc1ccc(-c2ccccc2)c(NC(N)=S)c1` the value was 166 to 167 °C.
For `CC(C(N)=O)c1ccc2c(c1)CC(=O)c1ccccc1S2` (configuration not stated) the value was 184 to 186 °C; for `NC(=O)NCCC[C@H](NCC(O)C(O)C(O)C(O)CO)C(=O)O` (some centres not stated), 176 °C.
For `O=C(O)C1C(=O)Nc2ccccc2SC1c1ccc2c(c1)OCO2` (mixture of isomers) the value was 110 °C; for `COc1cc(C(C)=O)ccc1OCCCCN1CCC(c2nsc3ccccc23)CC1`, 78 to 80 °C.
As to `CN(C)CCCn1c2c(c3ccccc31)CC(O)CC2` (configuration not stated), the melting point fell in the range of 174 to 176 °C.
Molecule `NS(=O)(=O)c1ccc(-n2nc(C(F)(F)F)cc2-c2ccc(-c3ccco3)c(Cl)c2)cc1F` showed a melting point of 172 °C.
Next, `O=C(CCn1cnc2c(=O)[nH]cnc21)Nc1ccc(C(=O)O)cc1`: 319 to 321 °C.
`COc1cc(Nc2c(C#N)cnc3cc(C)sc23)c(Cl)cc1Cl` gave a melting point of 213 to 214 °C.
Next, `O=C(O)[C@@H]1CCCN1Cc1cc2cc3c(cc2c2cc(O)ccc12)OCO3`: 205 to 206 °C.
`Cc1cc(Oc2c(Cl)cc(C(F)(F)F)cc2Cl)nn1C(=O)NCCBr` returned a melting point of 106 to 107 °C.
Next, `O=C(Nc1nc(C(C(=O)O)=C(Cl)C(=O)OCc2ccccc2)cs1)OCc1ccccc1`: 173 to 174 °C; `O=C(Cn1nnnc1-c1ccsc1)OCCCCCO`: 39 to 42 °C.
Next, `CC(=O)N(C1(c2ccc(OCc3ccc4ccccc4n3)cc2)CCCC1)S(=O)(=O)c1ccccc1C`: 80 °C; `Cc1cc(SC2=C(O)CC(C3CCCC3)(C3CCCC3)OC2=O)c(C(C)(C)C)cc1OCCO`: 90 to 92 °C.
Next, `O=C(CCC1CCCC1)Nc1ccc(N2CCC(NC[C@H](O)COc3cccc4[nH]c(=O)[nH]c34)CC2)cc1`: 140 to 144 °C; `CCCCC1OC(=O)c2cc(NC(C)C)ccc21` (configuration not stated): 72 to 74 °C.
The molecule `C(#Cc1ccsc1)c1cccnc1` registered a melting point of 62 °C.
For `CC(C)(Oc1ccc(Cl)cc1)C(O)(Cn1cncn1)c1ccc(Cl)cc1` (configuration not stated) the value was 135 °C; for `O=C(CCCCCCCCC1CO1)OCCOC(=O)CCCCCCCCC1CO1` (configuration not stated), 39 to 40 °C; for `CSC1=NCC2CN=C(c3ccccc3F)c3cc(Cl)ccc3N12` (configuration not stated), 163 to 165 °C.
For `CC(C)(C)c1c(Cl)nc(OCc2ccccc2)nc1OCc1ccccc1` the value was 96 °C; for `CCOC(=O)c1ccc(OCC(O)CC)cc1` (configuration not stated), 52 to 52.5 °C.
For `COc1cc(C(C)C)c2c(c1)S(=O)(=O)N(COc1cc(-c3ccccc3)nn1C)C2=O` the value was 126 to 128 °C.
`O=C1C(=O)c2ccccc2C2=C1SCC1(CCN(Cc3ccc(-c4cn[nH]c4)cc3)CC1)O2` returned a melting point of 190 to 192 °C.
For `CCOC(=O)c1ccc(OCC2CCN(c3ccc(OC)nn3)CC2)cc1` the value was 147 °C.
Next, `COc1cccc(CCOc2ccc(C(=O)N/C(=C\c3ccc(Cl)cc3)C(=O)NCCO)cc2)c1`: 54 to 56 °C.
For `O=[N+]([O-])c1cc(OCC2=CCCSC2)c(Cl)cc1F` the value was 91 to 94 °C; for `CCOC(=O)NCc1cccc(-c2ccnc3c(C#N)cnn23)c1`, 140 to 142 °C; for `COc1cc2cc(C(=O)N3CC(CCl)c4c3cc(NC(=O)OCc3ccc([N+](=O)[O-])cc3)c3ccccc43)[nH]c2c(OC)c1OC` (configuration not stated), 191 to 192 °C.
Molecule `CC(=O)OCCOc1cc(-n2c(=O)cc(C(F)(F)F)n(C)c2=O)c(F)cc1Cl` displayed a melting point of 88 to 90 °C.
Consider `Cc1c(Cl)cc(C(=O)O)c(Cl)c1[N+](=O)[O-]`, for which the melting point was 210 to 218 °C.
For `CCCCCCC(NC(=O)OCc1ccccc1)P(=O)(O)CC(=O)OC` (configuration not stated) the value was 260 to 268 °C; for `COC(=S)c1cc(C)cc(C)c1`, 46 °C.
Molecule `Cc1c(C)c2c(c(C)c1NC(=O)NCCCCO)C(c1ccc(C(C)C)cc1)CO2` (configuration not stated) showed a melting point of 145 to 146 °C.
Next, `COC(=O)c1cc(CCN(C)CCCC(C#N)(c2ccc(OC)c(OC)c2)C(C)C)ccc1OC` (configuration not stated): 76 to 81 °C.
For `CN(C)c1ccc(NC(=O)N(C[C@@H]2CCCC[C@H]2CN(C(=O)Nc2ccc(N(C)C)cc2)C2CCCCCC2)C2CCCCCC2)cc1` (relative stereo), the melting point lay in the range of 107 to 112 °C.
Next, `COc1nc(C)cnc1NS(=O)(=O)c1cccnc1-c1ccc(C=CC(=O)O)cc1`: 233 to 235 °C; `Cc1cccc(C)c1NC(=O)N=C1CCC(C)N1C` (configuration not stated): 120 to 122 °C.
For `CC(C)(C)C(=O)c1c[nH]c2ncc(-c3cccc(NC4CCCC4O)c3)nc12` (configuration not stated) the value was 178 to 180 °C; for `N#Cc1c(Nc2cccnc2)nn(Cc2ccccc2)c1N`, 191 to 192 °C.
Next, `CC(=O)OC(C)OC(=O)[C@H](Cc1ccc(-c2c(C)n(C)c(=O)n(C)c2=O)cc1)NC(=O)c1c(Cl)cccc1Cl` (some centres not stated): 168 to 170 °C; `Cc1nc(OC(C)C(=O)NC(C)(C#N)C(C)(C)C)c(Cl)c(C(F)(F)F)n1` (configuration not stated): 137 to 139 °C.
The molecule `CC(C)=CCCC(C)C1CCC2C3CC(O)C4CC(O)CCC4(C)C3CCC12C` (configuration not stated) displayed a melting point of 188 to 190 °C.
For `O=C(Nc1ccc([N+](=O)[O-])cc1)C(=O)N1CCC(Cc2ccccc2)CC1` the value was 162 to 165 °C; for `CCOC(=O)c1c(C(F)(F)F)nc(C(F)(F)F)c(C(=O)OC)c1Cl`, 46 to 48 °C; for `CC(C)(C)C(=O)OCOC(=O)c1c2n(c3cc4c(cc3c1=O)OCO4)CCS2`, 229 to 230 °C.
For `COc1ccc(S(=O)(=O)Nc2cccnc2Nc2ccc(C)cc2)cc1` the value was 188 to 189 °C; for `COc1ccc(-c2ccc(C(=O)Nc3ccc4cc(CN5CCCCCC5)cnc4c3C)cc2)cc1`, 165 to 167 °C.
In turn, `CNc1cc(N2CCN(C(=O)N3CCN(S(=O)(=O)c4ccc(Br)cc4)CC3)CC2)ncn1` registered a melting point of 219 to 221 °C.
For `ON=C(c1ccc2c(c1)OCO2)C(F)(F)F` the value was 96 °C.
In turn, `CCc1cc(C=Cc2ccccc2O)on1` came in with a melting point of 175 to 176 °C.
For `CNC(=O)N(O)Cc1ccoc1` the value was 129 to 131 °C; for `CC(C)(C)OC(=O)N1CCC2(CC1)CC(c1ccc(Cl)cc1)=NO2`, 138 to 141 °C.
Next, `COc1ccc(Nc2c([N+](=O)[O-])ccc(Cl)c2C(=O)O)cc1Cl`: 222 to 228 °C; `COc1ccc(NC(=O)OC2CN3CCC2CC3)cc1` (configuration not stated): 160 °C.
`CCOC(=O)C(N)c1ccc(C(C)=O)cc1` (configuration not stated) returned a melting point of 77 to 78 °C.
Next, `NC(=O)CNc1ncccc1N`: 153 to 155 °C; `COC(=O)c1ccc(CC(C)NCC(O)c2ccc(O)c(C)c2)cc1` (configuration not stated): 103 to 107 °C.
For `Cc1ccc(Nc2c([N+](=O)[O-])ccc(Cl)c2C(=O)O)cc1` the value was 192 to 197 °C; for `CCCCN1C(=O)NC(=Cc2cc(OC)c(OC)cc2OC)C1=O`, 170 °C.
Next, `ON=CNc1nc(OCc2ccc(F)cc2)ncc1F`: 169 to 171 °C; `COc1cccc(/C=C/C(=O)/C=C/C(=O)O)c1`: 158 to 160 °C; `COc1cc(Nc2nccc(-c3ccsc3)n2)cc(OC)c1OC`: 163 °C.
In turn, `CCc1c2cccccc-2[nH]c1=O` had a melting point of 166 to 171 °C.
Next, `CC(=O)NC(=S)c1nc2cc(Cl)c(Cl)cc2n1S(=O)(=O)N(C)C`: 172 to 173 °C.
Next, `CC(=O)N[C@@H](CSC(=O)c1ccccc1)C(=O)NCCSC(=O)c1ccccc1`: 188 to 190 °C; `CC(C)=Cn1cnc2c(N)nc3ccccc3c21`: 284 to 289 °C; `Oc1ccc2c(-c3ccccc3F)noc2c1I`: 212 to 214 °C.
Next, `O=C1NCCN1N=Cc1ccccc1`: 201 to 206 °C; `OC1(C(c2ccccc2F)n2cccc2)CCN(Cc2ccccc2)C1` (configuration not stated): 87 to 89 °C; `CCNC(=O)c1cc(Oc2nn(C)c(C(F)(F)F)c2Cl)ccc1[N+](=O)[O-]`: 130 °C.
`CC(C)(C)c1cc(N2CCCCC2=O)cc(C(C)(C)C)c1O` showed a melting point of 212 to 214 °C.
For `Cn1cnc2ccnc(Cl)c21` the value was 62 to 65 °C; for `Cn1cc(-c2cc3nccnc3[nH]2)c2cc(C(=O)NC(C)(C)CO)ccc21`, 210 to 214 °C.
`CC(COc1ccc(CC2SC(=O)NC2=O)cc1)C1CC(COc2ccccc2)OC1=S` (configuration not stated) registered a melting point of 53 to 58 °C.
`Cc1ccc(S(=O)(=O)Oc2cc(C=O)cc(OS(=O)(=O)c3ccc(C)cc3)c2OS(=O)(=O)c2ccc(C)cc2)cc1` displayed a melting point of 159 °C.
For `Cn1cc(C2=C(c3cn(C4CCN(CC(F)(F)C(F)(F)C(F)(F)F)CC4)c4ccccc34)C(=O)NC2=O)c2ccccc21` the value was 231 to 234 °C.
`C=CCOc1cc(C)ccc1N1C(=O)c2ccccc2C1=O` gave a melting point of 122 to 124 °C.
For `CCC(=O)N(Cc1cnc(Cl)s1)C(=N[N+](=O)[O-])NC` the value was 89 to 90 °C; for `CN1CCc2ccc3cc[nH]c3c2CC1`, 150 to 153 °C; for `Cc1cccc(-c2nc3ccccn3c2-c2ccnc(-c3ccc(NS(=O)(=O)C(F)(F)F)cc3)c2)n1`, 135 °C.
Molecule `Cc1c2c(c(Br)n1C)NC(=O)CN=C2c1ccccc1` came in with a melting point of 200 to 202 °C.
As for `Nc1ccc(S(=O)(=O)c2cc(Cl)nc(Cl)c2)cc1`, the melting point was 190 to 192 °C.
